Experimental data published in patent EP0580409A2, “Cosmetic composition containing DOPA derivatives” (UNILEVER PLC, priority 1992, dated 1994).
Where a name gives a salt, the structure may show the parent alone.

Legend:
[1] = system: isolated living human hair follicles; assay: in vitro test of darkening of hair on regrowth with isolated hair follicles in culture; assay type: cell-based
Source text: The isolation of individual hair follicles and their culture will now be described.
The method of testing includes the important step of isolating hair follicles having an undamaged hair bulb from skin, preferably from human skin, by microdissection, but preferably without the enzymic pretreatment advocated by other workers in this field.
The critical step of separating the hair follicle with intact undamaged hair bulb from the subcutaneous fatty tissue in which it is situated accordingly involves severing the hair shaft of the follicle at a point below the epidermis or skin surface, so as to leave the hair bulb intact and undamaged while still bearing a portion of the hair shaft.
(§1) In accordance with the preferred method of culture, isolated hair follicles were maintained in 500µl of Williams E medium, containing the test substance (substituted DOPA) at a concentration of 1mM, at 37°C in an atmosphere of 5% CO₂ + 95% air in individual wells of a 24 multiwell dish (Corning), which permitted detailed observations of the colour and measurements to be made of individual hair follicles.
Hair shaft length measurements and colour changes, i.e. darkening, were made on these follicles, using a Nikon Diaphot inverted binocular photo microscope with eye piece measuring graticules, over seven days in culture.
Groups of eight freshly isolated hair follicles were maintained in a Williams E medium under the conditions stated above. For a control group of follicles the medium contained no test substance. For other groups of follicles the medium contained the test substance at 0.1mM concentration of 1mM concentration, In all cases the growth medium additionally contained L-glutamine (2mM), Penicillin (50 IU/ml), streptomycin (50 ug/ml), insulin (10 ug/ml) and hydrocortisone (10 ng/ml).
(§2) The follicles were photographed at the start of the incubation period and again after incubation for two or four days. The growth and morphology of the follicles was monitored during the culture period.

[2] = system: isolated living human hair follicles; assay: observation of inhibition or damage of cultured hair follicles; assay type: cell-based; settings: follicles cultured with test substance at 0.1mM or 1mM
Procedure: as §1
Groups of eight freshly isolated hair follicles were maintained in a Williams E medium under the conditions stated above. For a control group of follicles the medium contained no test substance. […]
as §2
Melanin formation by these follicles was assessed. […] The supernatant was removed, 200ul samples added to a 96 well plate and the melanin content then determined spectrophotometrically at 540nm. […] The protein content of each sample was also determined by the Folin & Lowry method, with the absorbance being read at 540nm. […] Results were expressed as ug melanin/mg soluble protein.

cultured follicles = assay: melanin formation by cultured hair follicles, spectrophotometric at 540nm; assay type: cell-based, human; settings: 12 cultured follicles per assay; control 1.11
Procedure: Melanin formation by these follicles was assessed. The procedure was based on that of Gardon and Gilchrest, 1989. For each assay 12 cultured follicles were placed in 500ul of 1M NaOH and incubated overnight at 4°C. The follicles were then homogenised and centrifuged at 14,000 rpm for 2 min. The supernatant was removed, 200ul samples added to a 96 well plate and the melanin content then determined spectrophotometrically at 540nm. A standard curve was also prepared from synthetic melanin dissolved in 1M NaOH. The protein content of each sample was also determined by the Folin & Lowry method, with the absorbance being read at 540nm. […] Results were expressed as ug melanin/mg soluble protein.

[3] = 0.1mM test substance in Williams E medium, after 48 hrs
[4] = 1mM test substance in Williams E medium, 96 hrs

Structure (SMILES) | DARKENING OBSERVED [1, 3] | inhibit or damage the follicles [2] | µg Melanin/mg soluble protein (cultured follicles) | DARKENING OBSERVED [1, 4]
CC(N)(Cc1ccc(O)c(O)c1)C(=O)O (centres unmarked) [2-methyl-3-(3,4-dihydroxyphenyl)alanine, 2-methyl-3-(3,4-dihydroxyphenylalanine)] | YES (after 48 hrs) | did not appear to inhibit or damage the follicles | 8.36 µg Melanin/mg soluble protein | 
CC(=O)Oc1ccc(C[C@H](N)C(=O)O)cc1OC(C)=O [3,4-diacetyl-L-DOPA hydrochloride] |  |  |  | YES (96 hrs)
NC(C(=O)O)C(O)c1ccc(O)c(O)c1 (centres unmarked) [Dihydroxyphenylserine, 3,4-dihydroxyphenylserine] | YES (after 48 hrs) | did not appear to inhibit or damage the follicles | 6.31 µg Melanin/mg soluble protein | 
COC(=O)[C@@H](N)Cc1ccc(OC(C)=O)c(OC(C)=O)c1 [methyl-3,4-diacetyl-L-DOPA hydrochloride] |  |  |  | YES (96 hrs)
